Data: US9796733B2, “Imidazo-pyrazine derivatives useful as soluble guanylate cyclase activators” (Merck Sharp & Dohme Corp., priority 2014, dated 2017)

Experiments:
[1] = test system: Spontaneously hypertensive rats (SHR); assay: Acute efficacy in spontaneously hypertensive rats (SHR): telemetry blood pressure lowering after a single oral dose; assay type: in vivo, rat; conditions: P.O. 1.0 mpk
Excerpt: Acute Efficacy in Spontaneously Hypertensive Rats (SHR)
Spontaneously hypertensive rats (SHR, male, Charles River) were implanted with DSI TA11PA-C40 telemetry device (Data Sciences, Inc., St. Paul, Minn.) under isoflurane or ketamine/metomidine anesthesia. The telemetry unit catheter was inserted into the descending aorta via the femoral artery and the telemetry device was implanted subcutaneously in the left flank area. Animals were allowed to recover from surgery for 14 days before the start of any studies. Blood pressure, heart rate, and activity signals from conscious, freely moving rats were recorded continuously for 30 seconds every 10 minutes. On the day prior to administration of compound, a single oral dose of vehicle (10% transcutol/20% Cremophor/70% water) was administered to all animals to establish baseline control data. The blood pressure lowering efficacy of compound (PO) or vehicle was evaluated following a single oral gavage. Data were collected as hourly averages, and changes in blood pressure were calculated by subtracting control baseline data on an hourly basis. Animals were maintained on normal diet with a 12 hour light-dark cycle.
Maximum peak decreases of systolic blood pressure (SBP) in SHR at a particular P.O. dose (mpk milligrams per kilogram) for the following representative compounds are provided. Category A=SBP in SHRs<20 mmHg; Category B=SBP in SHRs 20-40 mmHg; Category C=SBP in SHRs>40 mmHg

[2] = target: T1, sGC α1/β1 heterodimer (Homo sapiens, UniProt Q02108+Q02153); assay: Cell-based sGC functional assay (CASA assay): cGMP generation in CHO-K1/sGC cells, HTRF detection; conditions: for Emax: CHO-K1, percent activation relative to standard Compound A in CHO-K1/sGC cells, read-out: % Act.; for EC50: inflection point (IP) of cGMP generation in CHO-K1/sGC cells, 4P fit, activity expressed as percentage of Compound A
T1 construct: expressed in transfected cells; host or cells: CHO-K1 (clone #7, CHO-K1/sGC)
T1 sequence (Q02108 1-690): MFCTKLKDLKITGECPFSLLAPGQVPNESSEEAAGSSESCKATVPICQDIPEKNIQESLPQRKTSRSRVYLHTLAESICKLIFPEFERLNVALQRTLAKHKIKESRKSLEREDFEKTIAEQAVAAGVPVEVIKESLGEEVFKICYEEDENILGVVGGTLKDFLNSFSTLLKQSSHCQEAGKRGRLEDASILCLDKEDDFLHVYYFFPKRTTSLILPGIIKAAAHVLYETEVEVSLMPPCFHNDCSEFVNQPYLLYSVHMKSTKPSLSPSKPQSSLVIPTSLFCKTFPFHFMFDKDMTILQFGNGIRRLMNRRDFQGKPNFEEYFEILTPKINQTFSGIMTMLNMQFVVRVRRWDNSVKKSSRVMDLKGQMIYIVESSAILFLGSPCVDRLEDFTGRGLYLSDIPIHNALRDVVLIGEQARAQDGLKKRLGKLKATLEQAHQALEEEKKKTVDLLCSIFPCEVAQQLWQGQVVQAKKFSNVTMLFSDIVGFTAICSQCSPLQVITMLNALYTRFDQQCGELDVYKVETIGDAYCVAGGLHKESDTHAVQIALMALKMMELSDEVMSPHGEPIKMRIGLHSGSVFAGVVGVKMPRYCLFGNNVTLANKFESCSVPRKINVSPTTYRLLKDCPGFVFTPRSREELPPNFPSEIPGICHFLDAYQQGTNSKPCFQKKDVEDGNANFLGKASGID
T1 sequence (Q02153 1-619): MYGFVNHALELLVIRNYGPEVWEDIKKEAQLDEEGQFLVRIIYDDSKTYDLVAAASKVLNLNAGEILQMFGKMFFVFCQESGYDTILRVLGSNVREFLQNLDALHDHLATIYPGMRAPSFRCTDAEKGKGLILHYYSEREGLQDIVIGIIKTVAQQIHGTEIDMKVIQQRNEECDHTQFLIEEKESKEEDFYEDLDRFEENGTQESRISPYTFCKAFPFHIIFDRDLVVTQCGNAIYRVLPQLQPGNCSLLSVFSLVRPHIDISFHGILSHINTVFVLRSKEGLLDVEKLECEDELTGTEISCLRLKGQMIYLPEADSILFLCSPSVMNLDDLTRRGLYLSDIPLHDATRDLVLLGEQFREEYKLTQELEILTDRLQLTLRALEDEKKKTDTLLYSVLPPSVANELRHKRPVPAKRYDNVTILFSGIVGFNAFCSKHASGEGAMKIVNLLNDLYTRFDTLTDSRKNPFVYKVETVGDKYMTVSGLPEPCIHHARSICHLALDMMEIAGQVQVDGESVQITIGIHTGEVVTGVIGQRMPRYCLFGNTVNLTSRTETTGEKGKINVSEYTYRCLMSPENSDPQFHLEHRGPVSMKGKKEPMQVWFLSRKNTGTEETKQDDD
Outline: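 cGMP was quantified by HTRF after 1 hr, 37° C exposure of thawed CHO-K1 cells expressing sGC α1/β1 to compound, with or without 1 μM DETA-NO. IBMX (0.5 mM) blocked cGMP breakdown, and DMSO was 2.5% final. Percent of standard Compound A's maximal cGMP was fitted (4P) for inflection point.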

Row | Structure (SMILES) | Emax [2] [%] | EC50 [2] [µM] | Maximum peak decrease of systolic blood pressure (SBP) in SHR, Cat. [1]
1 | C[C@@H]1CN(c2nc(-c3cn4ccnc4c(CCC(F)(F)C(F)(F)F)n3)nc3c2C(C)(c2ccc(F)cc2)C(=O)N3)C[C@H](C)O1 (stereo partly drawn) [Example 303A, 4-((2R,6S)-2,6-dimethylmorpholino)-5-(4-fluorophenyl)-5-methyl-2-(8-(3,3,4,4,4-pentafluorobutyl)imidazo[1,2-a]pyrazin-6-yl)-5H-pyrrolo[2,3-d]pyrimidin-6(7H)-one] | 101 | 0.425 | –
2 | CC1CN(c2nc(-c3cn4ccnc4c(CCC(F)(F)C(F)(F)F)n3)nc3c2C(C)(c2ccc(F)cc2)C(=O)N3)C1 (centres unmarked) [Example 305A, 5-(4-fluorophenyl)-5-methyl-4-(3-methylazetidin-1-yl)-2-(8-(3,3,4,4,4-pentafluorobutyl)imidazo[1,2-a]pyrazin-6-yl)-5H-pyrrolo[2,3-d]pyrimidin-6(7H)-one] | 158 | 0.147 | –
3 | CN(C)c1nc(-c2cn3ccnc3c(CCC(F)(F)C(F)(F)F)n2)nc2c1C(C)(c1ccc(F)cc1)C(=O)N2 (centres unmarked) [Example 308A, 4-(dimethylamino)-5-(4-fluorophenyl)-5-methyl-2-(8-(3,3,4,4,4-pentafluorobutyl)imidazo[1,2-a]pyrazin-6-yl)-5H-pyrrolo[2,3-d]pyrimidin-6(7H)-one] | 126 | 0.281 | –
4 | COCCNc1nc(-c2cn3ccnc3c(CCC(F)(F)C(F)(F)F)n2)nc2c1C(C)(c1ccc(F)cc1)C(=O)N2 (centres unmarked) [Example 309A, 5-(4-fluorophenyl)-4-((2-methoxyethyl)amino)-5-methyl-2-(8-(3,3,4,4,4-pentafluorobutyl)imidazo[1,2-a]pyrazin-6-yl)-5H-pyrrolo[2,3-d]pyrimidin-6(7H)-one] | 97 | 0.039 | –
5 | COCCNc1nc(-c2cn3ccnc3c(CCC(F)(F)C(F)(F)F)n2)nc2c1C(C)(C)C(=O)N2 [Example 313, 4-((2-Methoxyethyl)amino)-5,5-dimethyl-2-(8-(3,3,4,4,4-pentafluorobutyl)imidazo[1,2-a]pyrazin-6-yl)-5H-pyrrolo[2,3-d]pyrimidin-6(7H)-one] | 93 | 0.025 | –
6 | CCc1nc(C2(C)C(=O)Nc3nc(-c4cn5ccnc5c(CCC(F)(F)C(F)(F)F)n4)nc(N)c32)no1 (centres unmarked) [Example 320B, 4-amino-5-(5-ethyl-1,2,4-oxadiazol-3-yl)-5-methyl-2-(8-(3,3,4,4,4-pentafluorobutyl)imidazo[1,2-a]pyrazin-6-yl)-5H-pyrrolo[2,3-d]pyrimidin-6(7H)-one] | 204 | 0.085 | –
7 | Nc1nc(-c2cn3ccnc3c(CCC(F)(F)F)n2)nc2c1C(c1ccc(C(F)(F)F)cn1)(C1CC1)C(=O)N2 (centres unmarked) [Example 340A, 4-amino-5-cyclopropyl-5-(5-(trifluoromethyl)pyridin-2-yl)-2-(8-(3,3,3-trifluoropropyl)imidazo[1,2-a]pyrazin-6-yl)-5H-pyrrolo[2,3-d]pyrimidin-6(7H)-one] | 129 | 0.808 | –
8 | COc1ccc(C2(C3CC3)C(=O)Nc3nc(-c4cn5ccnc5c(CCC(F)(F)C(F)(F)F)n4)nc(N)c32)cn1 (centres unmarked) [Example 343A, 4-amino-5-cyclopropyl-5-(6-methoxypyridin-3-yl)-2-(8-(3,3,4,4,4-pentafluorobutyl)imidazo[1,2-a]pyrazin-6-yl)-5H-pyrrolo[2,3-d]pyrimidin-6(7H)-one] | 121 | 0.046 | –
9 | Nc1nc(-c2cn3ccnc3c(CCC(F)(F)F)n2)nc2c1C(c1ncc(Cl)cn1)(C1CC1)C(=O)N2 (centres unmarked) [Example 374A, 4-amino-5-(5-chloropyrimidin-2-yl)-5-cyclopropyl-2-(8-(3,3,3-trifluoropropyl)imidazo[1,2-a]pyrazin-6-yl)-5H-pyrrolo[2,3-d]pyrimidin-6(7H)-one] | 126 | 0.387 | –
10 | Nc1nc(-c2cn3ccnc3c(CCC(F)(F)C(F)(F)F)n2)nc2c1C(c1ccccn1)(C1CC1)C(=O)N2 (centres unmarked) [Example 382B, 4-Amino-5-cyclopropyl-2-(8-(3,3,4,4,4-pentafluorobutyl)imidazo[1,2-a]pyrazin-6-yl)-5-(pyridin-2-yl)-5H-pyrrolo[2,3-d]pyrimidin-6(7H)-one] | 149 | 0.453 | –

Further compounds by falling EC50 [2], results first:

Row | Emax [2] [%] | EC50 [2] [µM] | Structure (SMILES) | Maximum peak decrease of systolic blood pressure (SBP) in SHR, Cat. [1]
11 | 106 | 2.1 | CCCc1nc(-c2nc(N)c3c(n2)NC(=O)C3(c2ccc(C(F)(F)F)cn2)C2CC2)cn2ccnc12 (centres unmarked) [Example 341A, 4-amino-5-cyclopropyl-2-(8-propylimidazo[1,2-a]pyrazin-6-yl)-5-(5-(trifluoromethyl)pyridin-2-yl)-5H-pyrrolo[2,3-d]pyrimidin-6(7H)-one] | –
12 | 124 | 0.894 | CCc1nc(-c2nc(N)c3c(n2)NC(=O)C3(C)c2ccc(Cl)cc2)cn2ccnc12 (single isomer, unassigned) [Example 1A, 4-Amino-5-(4-chlorophenyl)-2-(8-ethylimidazo[1,2-a]pyrazin-6-yl)-5-methyl-5H-pyrrolo[2,3-d]pyrimidin-6(7H)-one] | B (Category B=SBP in SHRs 20-40 mmHg)
13 | 89 | 0.415 | CC1(C)CN(c2nc(-c3cn4ccnc4c(CCC(F)(F)C(F)(F)F)n3)nc3c2C(C)(c2ccc(F)cc2)C(=O)N3)CCO1 (centres unmarked) [Example 304A, 4-(2,2-dimethylmorpholino)-5-(4-fluorophenyl)-5-mehtyl-2-(8-(3,3,4,4,4-pentafluorobutyl)imidazo[1,2-a]pyrazin-6-yl)-5H-pyrrolo[2,3-d]pyrimidin-6(7H)-one] | –
14 | 93 | 0.152 | CNc1nc(-c2cn3ccnc3c(CCC(F)(F)C(F)(F)F)n2)nc2c1C(C)(c1ccc(F)cc1)C(=O)N2 (centres unmarked) [Example 307A, 5-(4-fluorophenyl)-5-methyl-4-(methylamino)-2-(8-(3,3,4,4,4-pentafluorobutyl)imidazo[1,2-a]pyrazin-6-yl)-5H-pyrrolo[2,3-d]pyrimidin-6(7H)-one] | –
15 | 108 | 0.108 | CC1(c2ccc(F)cc2)C(=O)Nc2nc(-c3cn4ccnc4c(CCC(F)(F)C(F)(F)F)n3)nc(N3CCC3)c21 (centres unmarked) [Example 306A, 4-(azetidin-1-yl)-5-(4-fluorophenyl)-5-methyl-2-(8-(3,3,4,4,4-pentafluorobutyl)imidazo[1,2-a]pyrazin-6-yl)-5H-pyrrolo[2,3-d]pyrimidin-6(7H)-one] | –
16 | 77 | 0.045 | CC1(c2ccc(F)cc2)C(=O)Nc2nc(-c3cn4ccnc4c(CCC(F)(F)C(F)(F)F)n3)nc(N3CCOCC3)c21 (centres unmarked) [Example 310A, 5-(4-fluorophenyl)-5-methyl-4-morpholino-2-(8-(3,3,4,4,4-pentafluorobutyl)imidazo[1,2-a]pyrazin-6-yl)-5H-pyrrolo[2,3-d]pyrimidin-6(7H)-one] | –
17 | 93 | 0.025 | CN(C)c1nc(-c2cn3ccnc3cn2)nc2c1C(C)(c1ccc(Cl)cc1)C(=O)N2 (centres unmarked) [Example 312A] | –
